Measurements published in the METLIN SMRT retention time set (Domingo-Almenara et al. 2019).

experiment: gradient 5% acetonitrile 3 min, to 50% in 2 min, to 85% in 15 min, held 3 min, 100 µL/min; settings: column: Zorbax Extend-C18 2.1 x 50 mm; eluents: water / acetonitrile, 0.1% formic acid
In short: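 Over 3 months, pure standards in mixtures of ~100 molecules were run by HPLC coupled to a quadrupole time-of-flight mass spectrometer in positive and negative ionization mode. The column was a Zorbax Extend-C18 (2.1 × 50 mm, 1.8 μm) at 100 μL/min, eluted with water and acetonitrile each holding 0.1% formic acid, with 40 μL dead and 900 μL dwell volumes. Retention time was determined from adduct peaks chosen by software and checked manually.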

Compound	RP-LC retention time [s]
CN1C(=O)CCc2cc(NC(=O)Cc3cccs3)ccc21	702
Cc1c(C(=O)Nc2ccccc2)cnc2nc(-c3ccncc3)nn12	594
CCc1ccc(NC(=O)N2CCc3c(c(-c4nc(C5CC5)no4)nn3C)C2)cc1	934
Cc1ccc(C(=O)Nc2ccc3c(N4CCCCC4)ncnc3c2)s1	695
O=C(NCc1ccc(F)cc1Cl)C1=C2CCCN2c2ccccc2S1(=O)=O	913
Cc1noc2nc(CCC(=O)Nc3ccc(Cl)cc3F)nc(N3CCOCC3)c12	818
N#Cc1ccc(-c2nc(-c3ccc4c(c3)nnn4CCN3CCCCC3)no2)cc1	676
O=C(c1ccc2c(c1)OCO2)N1CCN(Cc2nc(C3CC3)cs2)CC1	611
O=C(NC1(c2nc(-c3cccnc3)no2)CCCCC1)c1ccc(Br)cc1	1010
CCOc1ccc(-c2noc(CS(=O)(=O)c3cc(C)c(C)cc3C)n2)cc1	1110
Cc1noc(C)c1CN1CCN(C(=O)NCc2ccc(F)cc2)CC1	598
CCOc1ccccc1N1CCN(C(=O)C2CCCN(c3nccc4sc(C)cc34)C2)CC1 (configuration not stated)	713
CC(=O)N1c2ccc(S(=O)(=O)N3CCCC3)cc2CC1C(=O)NCCCN1CCCCC1 (configuration not stated)	626
COCCNCc1ccc(-c2cccc(Cl)c2)o1	647
Cc1ccc(Nc2c(-c3ccc(N(C)C)cc3)nc3ccc(Cl)cn23)cc1	818
COCc1nc(C2CCN(C(=O)C3CC3)C2)no1 (configuration not stated)	626
O=C(O)c1nnn(-c2ccc3c(c2)OCCO3)c1-c1cccnc1	568
COC(=O)c1cc2c(=O)n(CCc3cccs3)ccc2nc1C	838
Cc1ccc(C)c(N2CCN(C(=O)Cn3ccc4ccc(N5CCOCC5)nc43)CC2)c1	1110

Compound	RP-LC retention time [s]
O=C(CCC1CCN(c2cc(NC3CC3)ncn2)CC1)NCc1ccccc1F	673
Cc1cccc(-c2nc(-c3ccc4c(c3)oc(=O)n4C(C)C)no2)c1	1250
Cn1nc(-c2nc(C3CC3)no2)c2c1CCN(C(=O)c1ccccc1Br)C2	821
CC1(C)CC(=O)c2cn(-c3ccccc3)c(=O)c(C(=O)Nc3ccccc3)c2C1	803
COc1ccc(Cl)cc1C(=O)Nc1ccc2c(c1)N(C)C(=O)C(C)(C)CO2	955
CC1CCCCN1S(=O)(=O)c1ccc(C(=O)Nc2nc3c(s2)Cc2ccccc2-3)cc1 (configuration not stated)	1190
COCCOCC(=O)N1[C@@H]2CC[C@H]1CC(NC(=O)c1cnc(C)cn1)C2 (some centres not stated)	579
Cc1cc(NC(=O)Cn2nc(C(=O)N3CCCC3)c3ccccc32)ccc1Br	948
CCn1cnc2cc(CNC(=O)c3ccc(C(F)(F)F)cc3)ccc21	651
CCc1ccc(CNC(=O)c2cn(C)nc2S(=O)(=O)N2CCSCC2)cc1	961
Cc1ccc(S(=O)(=O)Nc2cccc(-c3cn4ccccc4n3)c2)cc1[N+](=O)[O-]	681
Cc1[nH]c(C(=O)N2CCC(CC(=O)NCc3ccc(Cl)cc3)CC2)c(C)c1C(=O)OC(C)C	878
O=C(Nc1ccc(N2CCN(C3CCCCC3)C2=O)nc1)c1ccc(F)cc1	926
Cc1ccc(CN2CCCn3nc(C(=O)NCCc4c[nH]c5ccc(Cl)cc45)cc3C2=O)cc1	953
CSc1ccc(NC(=O)Nc2ccccc2C(N)=O)cc1	846
COCCCNC(=O)CN1C(=O)C2CCCCN2c2ccc(C(=O)N3CCCC3)cc21 (configuration not stated)	696
Clc1cccc(-c2nc(Cn3ccnc3)no2)c1	629
COc1ccccc1CNC(=O)C1CN(C(=O)c2cccs2)CC12CCCCC2 (configuration not stated)	912
